# Results published in BindingDB's records for doi:10.7270/Q2M32T6M (Vanderbilt Screening Center for GPCRs, Ion Channels and …, 2009).
# Molecular target: T1, Solute carrier family 12 member 5 (Homo sapiens, UniProt Q9H2X9)
# T1 sequence (Q9H2X9 whole entry): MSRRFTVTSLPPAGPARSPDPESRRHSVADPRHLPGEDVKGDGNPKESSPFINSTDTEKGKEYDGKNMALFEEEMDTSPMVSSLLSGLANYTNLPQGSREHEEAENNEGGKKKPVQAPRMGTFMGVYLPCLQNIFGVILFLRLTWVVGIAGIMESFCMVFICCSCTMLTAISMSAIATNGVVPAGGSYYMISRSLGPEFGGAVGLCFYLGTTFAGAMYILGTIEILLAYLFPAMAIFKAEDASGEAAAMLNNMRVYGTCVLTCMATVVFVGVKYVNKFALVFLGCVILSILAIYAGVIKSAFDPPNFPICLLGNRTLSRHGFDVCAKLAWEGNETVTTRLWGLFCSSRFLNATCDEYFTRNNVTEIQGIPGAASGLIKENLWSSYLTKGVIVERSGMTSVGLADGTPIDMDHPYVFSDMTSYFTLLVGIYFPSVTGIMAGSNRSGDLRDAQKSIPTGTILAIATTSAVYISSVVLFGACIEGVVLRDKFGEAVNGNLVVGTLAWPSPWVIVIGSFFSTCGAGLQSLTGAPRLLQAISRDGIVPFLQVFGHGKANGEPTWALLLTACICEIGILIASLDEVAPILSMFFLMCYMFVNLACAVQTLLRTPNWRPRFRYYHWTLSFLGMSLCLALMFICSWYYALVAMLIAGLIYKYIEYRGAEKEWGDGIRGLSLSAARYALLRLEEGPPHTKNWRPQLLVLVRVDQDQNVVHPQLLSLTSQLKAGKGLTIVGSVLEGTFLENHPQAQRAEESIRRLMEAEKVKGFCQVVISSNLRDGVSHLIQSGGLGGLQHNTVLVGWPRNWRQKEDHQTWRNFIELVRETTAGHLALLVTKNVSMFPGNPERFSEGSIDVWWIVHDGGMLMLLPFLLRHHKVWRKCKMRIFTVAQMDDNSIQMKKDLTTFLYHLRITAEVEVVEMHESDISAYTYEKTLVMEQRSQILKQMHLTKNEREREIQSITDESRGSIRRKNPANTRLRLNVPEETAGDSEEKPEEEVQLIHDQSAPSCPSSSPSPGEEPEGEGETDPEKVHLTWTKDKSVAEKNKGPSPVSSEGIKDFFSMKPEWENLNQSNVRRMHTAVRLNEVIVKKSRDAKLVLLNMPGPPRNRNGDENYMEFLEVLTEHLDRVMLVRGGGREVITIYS
# Assay: concentration-response of KCC2 transport modulators – cell-based, HEK293 KCC2, FluoZin-2 fluorescence, dose response (AID 1736)
# Details: not given
row,Compound,EC50 [µM]
1,"O=C(OCn1ncc(Cl)c(Cl)c1=O)c1ccc(F)cc1 [(4,5-dichloro-6-oxopyridazin-1-yl)methyl 4-fluorobenzoate]",3.32
2,"CC(C)c1onc(C(=O)N2CCN(Cc3ccccc3)CC2)c1[N+](=O)[O-] [(4-benzylpiperazin-1-yl)-(4-nitro-5-propan-2-yl-1,2-oxazol-3-yl)methanone]",0.392
3,"Cc1onc(C(=O)N2CCN(Cc3ccccc3)CC2)c1[N+](=O)[O-] [(4-benzylpiperazin-1-yl)-(5-methyl-4-nitro-1,2-oxazol-3-yl)methanone]",6.9
4,O=C(c1ccc(-c2ccccc2)cc1)C1CCCN(Cc2ccncc2)C1 (stereo not given) [(4-phenylphenyl)-[1-(4-pyridylmethyl)-3-piperidyl]methanone],4.61
5,"CCOC(=O)c1c(C)[nH]c(N=Nc2ccccc2)c1C [(5Z)-2,4-dimethyl-5-(phenylhydrazinylidene)-3-pyrrolecarboxylic acid ethyl ester]",5.25
6,CN1C(=O)/C(=C/c2ccccc2OCc2ccccc2)NC1=S [(5Z)-3-methyl-5-[(2-phenylmethoxyphenyl)methylidene]-2-sulfanylidene-4-imidazolidinone],1640
7,"Oc1ccccc1CN=Nc1nc2ccccc2o1 [(6E)-6-[(1,3-benzoxazol-2-ylhydrazo)methylidene]-1-cyclohexa-2,4-dienone]",367
8,"CCCCCN1C/C=C\C(c2ccc(OC)cc2)N(Cc2ccc(F)cc2)C(=O)C1 (stereo not given) [(6Z)-1-amyl-4-(4-fluorobenzyl)-5-(4-methoxyphenyl)-5,8-dihydro-2H-1,4-diazocin-3-one]",8.78
9,O=C(/C=C/c1ccco1)N1CCC(Cc2ccccc2)CC1 [(E)-1-(4-benzylpiperidin-1-yl)-3-(furan-2-yl)prop-2-en-1-one],9.8
10,CC(C)CCNC(=O)COC(=O)/C=C/c1ccc2ccccc2n1 [(E)-3-(2-quinolinyl)-2-propenoic acid [2-(3-methylbutylamino)-2-oxoethyl] ester],2.3
11,"CC1Cc2ccccc2N1C(=O)/C=C/c1cccc(F)c1 (stereo not given) [(E)-3-(3-fluorophenyl)-1-(2-methyl-2,3-dihydroindol-1-yl)-2-propen-1-one]",192
12,"COc1ccc(-c2nnc(S/C(=C/c3ccc(Cl)cc3)C(=O)O)o2)cc1 [(E)-3-(4-chlorophenyl)-2-[[5-(4-methoxyphenyl)-1,3,4-oxadiazol-2-yl]sulfanyl]prop-2-enoic acid]",0.388
13,O=C(O)/C=C/c1cn(Cc2ccccc2Cl)nc1-c1ccccc1 [(E)-3-[1-(2-chlorobenzyl)-3-phenyl-pyrazol-4-yl]acrylic acid],0.409
14,"O=C(O)CC/C(=C\c1ccccc1[N+](=O)[O-])c1nc2ccccc2s1 [(E)-4-(1,3-benzothiazol-2-yl)-5-(2-nitrophenyl)-4-pentenoic acid]",350
15,"O=C(O)CC/C(=C\c1ccc(N2CCCC2)c([N+](=O)[O-])c1)c1nc2ccccc2s1 [(E)-4-(1,3-benzothiazol-2-yl)-5-(3-nitro-4-pyrrolidin-1-yl-phenyl)pent-4-enoic acid]",233
16,"O=C(O)CC/C(=C\c1ccc(N2CCOCC2)c([N+](=O)[O-])c1)c1nc2ccccc2s1 [(E)-4-(1,3-benzothiazol-2-yl)-5-(4-morpholin-4-yl-3-nitro-phenyl)pent-4-enoic acid]",12.2
17,COc1ccccc1N1CCN(C(=S)NC(=O)/C=C/c2ccccc2)CC1 [(E)-N-[4-(2-Methoxy-phenyl)-piperazine-1-carbothioyl]-3-phenyl-acrylamide],11.9
18,CC[C@H](CO)Nc1nc(Nc2cccc(Cl)c2)c2ncn(C(C)C)c2n1 [(R)-2-(6-(3-chlorophenylamino)-9-isopropyl-9H-purin-2-ylamino)butan-1-ol],10.6
19,O=C(CNC(=O)/C(=C/c1ccccc1)NC(=O)c1ccc(Br)cc1)OCc1ccccc1 [(phenylmethyl) 2-[[(Z)-2-[(4-bromophenyl)carbonylamino]-3-phenyl-prop-2-enoyl]amino]ethanoate],2
20,Cc1ccc2c(c1)nnn2C1CCN(S(=O)(=O)c2cccc(S(=O)(=O)N(C)C)c2)CC1 [MLS000033642],6.91
21,O=C(CSc1ncccc1-c1nc2ccccc2[nH]1)N1CCN(c2ccccc2F)CC1 [MLS000033700],26.5
22,O=C(OC1CCc2ccccc2C1=O)c1ccccc1O (stereo not given) [MLS000051417],26.5
23,Cc1nn(-c2nc3ccccc3[nH]2)c(N)c1-c1ccccc1 [MLS000063763],24.4

row,Compound,EC50 [µM]
1,Cc1nonc1NC(=O)CSc1ccc(-c2ccccc2)nn1 [MLS000074514],1.56
2,O=C(NCc1cccs1)c1nc2c(nnn2Cc2ccc(F)cc2)c(=O)[nH]1 [MLS000074753],41100
3,CS(=O)(=O)N(CC(=O)N1CCN(c2ccccc2)CC1)c1cccc(Br)c1 [MLS000110474],3.74
4,Cn1c(C(=O)NCCCN2CCN(c3ccccc3F)CC2)cc2c(=O)n(C)c3ccccc3c21 [MLS000118127],4.93
5,Cn1c(C(=O)NCCN2CCN(c3ccccc3F)CC2)cc2c(=O)n(C)c3ccccc3c21 [MLS000118132],1.74
6,CCN(CC)S(=O)(=O)c1ccc(NC(=O)CSc2ncnc3ccccc23)cc1 [MLS000393282],3
7,CC1Cc2ccccc2N1C(=O)CN(C)S(=O)(=O)c1cccc2cccnc12 (stereo not given) [MLS000523063],17.5
8,CS(=O)(=O)N(CC(=O)N1CCN(c2ccc(F)cc2)CC1)c1ccc(F)c(Cl)c1 [MLS000531433],20.6
9,Cc1ccc(C(=O)Nc2nc(=O)n(C(=O)c3ccccc3Cl)s2)cc1 [MLS000540480],3
10,O=C(NNc1nc(-c2ccccc2)cs1)c1ccccc1 [MLS000547345],0.0106
11,CCn1c(CCNC(=O)c2cccs2)nnc1SCC(=O)Nc1nc(-c2ccccc2)cs1 [MLS000548611],19.1
12,O=[N+]([O-])c1ccccc1C=C[CH+][N-]n1c(-c2ccc(Cl)cc2)n[nH]c1=S [MLS000555506],15.5
13,O=C(CC(Cc1ccccc1)c1ccco1)NC1CCCCC1 (stereo not given) [MLS000556612],3.03
14,CC(=NNC(=O)c1ccc(Br)cc1)c1ccccc1 [MLS000558629],2
15,Cc1nn2c(nc(O)c3ccccc32)c1C=O [MLS000565386],20.6
16,Cc1nn(-c2ccc(F)cc2)c(C)c1NS(=O)(=O)c1ccc2ccccc2c1 [MLS000565745],2.64
17,CNC(=O)/C(=C\C=C\c1ccccc1)NC(=O)c1ccc([N+](=O)[O-])cc1 [MLS000570424],3.38
18,CCn1c(SCC(=O)Nc2ccc(Cl)cc2)nc2nc3c(cc2c1=O)CCCC3 [MLS000589154],45.5
19,O=C(CSc1ccc(-c2cccs2)nn1)Nc1ccccc1F [MLS000621184],1.68
20,O=C(C=Cc1ccccc1)CC(=O)c1ccccc1O [MLS000627068],10
21,O=C(NCc1nc(-c2ccccc2)cs1)c1ccccc1 [MLS000661971],544
22,CN(CC(=O)N1CCN(Cc2ccccc2)CC1)S(=O)(=O)c1cccc2nsnc12 [MLS000674627],0.27
23,O=C(NC(=S)Nc1cccc2cccnc12)c1cccs1 [MLS000688132],0.156

# Same assay, conditions: inactive by the depositor's call
row,Compound,EC50 [µM]
1,"CCc1ccc(OCC(=O)NNC(=O)CSc2ncnc3sc(C)c(C)c23)cc1 [(4-Ethyl-phenoxy)-acetic acid N'-[2-(5,6-dimethyl-thieno[2,3-d]pyrimidin-4-ylsulfanyl)-acetyl]-hydrazide]",1070
2,"COc1cc(OC)c(C(=O)/C=C/c2ccccc2)c(O)c1O [(E)-1-(2,3-dihydroxy-4,6-dimethoxy-phenyl)-3-phenyl-prop-2-en-1-one]",486
3,"N#C/C(=C\c1cn(-c2ccccc2)nc1-c1cccnc1)c1nnc2n1CCCCC2 [(E)-3-(1-phenyl-3-pyridin-3-yl-pyrazol-4-yl)-2-(6,7,8,9-tetrahydro-5H-[1,2,4]triazolo[4,3-a]azepin-3-yl)prop-2-enenitrile]",1.45
4,O=C(NC(=S)NNC(=O)c1ccccc1O)c1ccco1 [Furan-2-carboxylic acid [N'-(2-hydroxy-benzoyl)-hydrazinocarbothioyl]-amide],303
5,O=C(NCCCCc1ccccc1)C1CC(c2ccccc2C(F)(F)F)=NO1 (stereo not given) [MLS000561910],40.9
6,C[C@@H](C(=O)Nc1ccc2ccccc2c1)[C@@H]1C[C@@]1(C)[C@@H](NC(=O)c1cccnc1)c1ccccc1 [MLS000563527],16.9
7,CCOC(=S)N=C(NS(=O)(=O)c1ccc(C)cc1)c1ccccc1 [MLS000579749],24.9
8,O=C(CCc1ccccc1)NC(=S)Nc1cccc(Br)c1 [MLS000583293],296
9,O=C(Nc1cc(S(=O)(=O)N2CCCCC2)ccc1Cl)c1ccccc1NS(=O)(=O)c1ccc(F)cc1 [MLS000707627],101
